Data: ChEMBL document CHEMBL1150732, “Anticandidal activity of eupolauridine and onychine, alkaloids from Cleistopholis patens” (1987)
In brackets after ≈: the same amount, converted by molar mass. Activity calls are given as the source filed them. The rule behind the calls is not given here.

System: Candida albicans
Test: Antifungal activity against Candida albicans B311 after 24 to 48 hrs by twofold serial dilution method
Type: functional

| Structure (SMILES) | MIC [µg/mL] | Activity |
| --- | --- | --- |
| Cc1ccnc2c1-c1ccccc1C2=O | 3.12 (≈ 16 µM) |  |
| Cc1ccnc2c1C(=O)c1ccccc1-2 |  | Active |
| C[C@@H]1[C@H](O)[C@@H](C)/C=C/C=C/C=C/C=C/C=C/C=C/C=C/[C@H](O[C@@H]2O[C@H](C)[C@@H](O)[C@H](N)[C@@H]2O)C[C@@H]2O[C@](O)(C[C@@H](O)C[C@@H](O)[C@H](O)CC[C@@H](O)C[C@@H](O)CC(=O)O[C@H]1C)C[C@H](O)[C@H]2C(=O)O [AMPHOTERICIN B] | 0.39 (≈ 0.422 µM) |  |
| c1ccc2c(c1)-c1nccc3ccnc-2c13 [EUPOLAURIDINE] | 1.56 (≈ 7.64 µM) |  |
